# Where a name gives a salt, the structure may show the parent alone. Numbered stars: 1 amine (or outer) side, 2 acyl side, 3 side chain; on linkers, the order of the positions; unused ones are H or OH. Square brackets hold non-standard residues; d marks the D form. Peptide text beside a SMILES is read from it. * marks the point of attachment. dGly(5-dibenzosuberyl) = N[C@@H](C(=O)O)C1c2ccccc2CCc2ccccc21; X3 = O=C([C@@H](N[*:1])C(c1ccccc1)(c1ccccc1)c1ccccc1)[*:2]; Ala(1-Adamantyl) = N[C@@H](CC12CC3CC(CC(C3)C1)C2)C(=O)O; X4 = Cc1c(C)c(C)c(C[C@@H](N[*:1])C(=O)[*:2])c(C)c1C; X2 = Cc1c(C)c(C)c(C[C@H](N[*:1])C(=O)[*:2])c(C)c1C; dDip = N[C@@H](C(=O)O)C(c1ccccc1)c1ccccc1; Dip = N[C@H](C(=O)O)C(c1ccccc1)c1ccccc1; Cyclohexanecarbonyl = O=C(C1CCCCC1)*; 3Pal = N[C@@H](Cc1cccnc1)C(=O)O; Suc = O=C(CCC(=O)[*:2])[*:1]; Orn = NCCC[C@H](N)C(=O)O; NHcHex = C1CCC(N*)CC1; CO = O=C([*:1])[*:2]; Tfa = O=C(C(F)(F)F)*
# What was measured:
# [1] = molecular target: T1, Endothelin receptor type B (Rattus norvegicus, UniProt P21451); assay: Binding affinity against endothelin B receptor rat cerebellar membranes.
# T1 sequence (P21451 whole entry): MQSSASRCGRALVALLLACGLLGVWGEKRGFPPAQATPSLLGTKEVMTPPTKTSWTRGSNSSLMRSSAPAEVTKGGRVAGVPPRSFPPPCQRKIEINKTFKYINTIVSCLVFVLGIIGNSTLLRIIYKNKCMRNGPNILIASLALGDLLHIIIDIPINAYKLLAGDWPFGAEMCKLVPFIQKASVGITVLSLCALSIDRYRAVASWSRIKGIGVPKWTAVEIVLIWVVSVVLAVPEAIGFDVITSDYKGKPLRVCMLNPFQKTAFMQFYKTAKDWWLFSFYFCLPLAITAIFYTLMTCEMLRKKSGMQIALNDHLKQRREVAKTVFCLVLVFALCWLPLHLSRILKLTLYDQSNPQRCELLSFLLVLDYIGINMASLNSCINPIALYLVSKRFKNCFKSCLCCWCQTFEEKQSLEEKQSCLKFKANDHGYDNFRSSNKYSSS
# [2] = molecular target: T1, Endothelin receptor type B; assay: Inhibition of SRTX-6c stimulated arachidonic acid release in CHO cells expressing rat ET- B receptors
# [3] = Relative affinities against endothelin A receptor (rabbit) and endothelin B receptor (rat); parameters: reference not given here
Compound,IC50 [1] [nM],IC50 [2] [nM],Ratio [3]
CC[C@H](C)[C@H](NC(=O)[C@H](CC(=O)O)NC(=O)[C@H](CC(C)C)NC(=O)[C@H](NC(C)=O)C(c1ccccc1)c1ccccc1)C(=O)N[C@@H](Cc1ccccc1)C(=O)N[C@@H](Cc1c[nH]c2ccccc12)C(=O)O,7500,–,–
CC[C@H](C)[C@H](NC(=O)[C@H](CC(=O)O)NC(=O)[C@H](CC(C)C)NC(=O)[C@@H](NC(=O)NC1CCCCC1)C(c1ccccc1)c1ccccc1)C(=O)N[C@H](C(=O)N[C@@H](Cc1c[nH]c2ccccc12)C(=O)O)[C@@H](C)CC ({NHcHex-CO}-[Dip]LDIIW-OH),68,210,29.4
CC[C@H](C)[C@H](NC(=O)[C@H](CCCCN)NC(=O)[C@H](CC(=O)O)NC(=O)[C@H](CC(C)C)NC(=O)[C@H](NC(C)=O)C(c1ccccc1)c1ccccc1)C(=O)N[C@@H](Cc1c[nH]c2ccccc12)C(=O)O,3700,–,–
CC[C@H](C)[C@H](NC(=O)[C@H](CC(=O)O)NC(=O)[C@H](CC(C)C)NC(=O)[C@@H](NC(=O)C1CCCCC1)C(c1ccccc1)c1ccccc1)C(=O)N[C@H](C(=O)N[C@@H](Cc1c[nH]c2ccccc12)C(=O)O)[C@@H](C)CC (Cyclohexanecarbonyl-[Dip]LDIIW-OH),350,560,17.8
CC[C@H](C)[C@H](NC(=O)[C@H](CC(=O)O)NC(=O)[C@H](CC(C)C)NC(=O)[C@H](N)C(c1ccccc1)c1ccccc1)C(=O)N[C@H](C(=O)N[C@@H](Cc1c[nH]c2ccccc12)C(=O)O)[C@@H](C)CC (H-[dDip]LDIIW-OH),–,9200,–
CC[C@H](C)[C@H](NC(=O)[C@H](CC(=O)O)NC(=O)[C@H](CC(C)C)NC(=O)[C@H](CC12CC3CC(CC(C3)C1)C2)NC(C)=O)C(=O)N[C@H](C(=O)N[C@@H](Cc1c[nH]c2ccccc12)C(=O)O)[C@@H](C)CC (Ac-[Ala(1-Adamantyl)]LDIIW-OH),2000,–,–
CC[C@H](C)[C@H](NC(=O)[C@H](C)NC(=O)[C@H](CC(C)C)NC(=O)[C@@H](NC(C)=O)C(c1ccccc1)c1ccccc1)C(=O)N[C@H](C(=O)N[C@@H](Cc1c[nH]c2ccccc12)C(=O)O)[C@@H](C)CC (Ac-[Dip]LAIIW-OH),16,–,–
CC[C@H](C)[C@H](NC(=O)[C@H](CC(=O)O)NC(=O)[C@H](CCCN)NC(=O)[C@@H](NC(C)=O)C(c1ccccc1)c1ccccc1)C(=O)N[C@H](C(=O)N[C@@H](Cc1c[nH]c2ccccc12)C(=O)O)[C@@H](C)CC (Ac-[Dip][Orn]DIIW-OH),150,–,–
CC[C@H](C)[C@H](NC(=O)[C@H](CC(=O)O)NC(=O)[C@H](CC(C)C)NC(=O)[C@@H](N)C(c1ccccc1)(c1ccccc1)c1ccccc1)C(=O)N[C@H](C(=O)N[C@@H](Cc1c[nH]c2ccccc12)C(=O)O)[C@@H](C)CC (H-[X3]LDIIW-OH),10000,–,–
CC[C@H](C)[C@H](NC(=O)[C@H](CC(=O)O)NC(=O)[C@@H](Cc1ccccc1)NC(=O)[C@@H](NC(C)=O)C(c1ccccc1)c1ccccc1)C(=O)N[C@H](C(=O)N[C@@H](Cc1c[nH]c2ccccc12)C(=O)O)[C@@H](C)CC,740,–,–
CC[C@H](C)[C@H](NC(=O)[C@H](CC(=O)O)NC(=O)[C@H](CC(C)C)NC(=O)[C@H](NC(C)=O)C(c1ccccc1)c1ccccc1)C(=O)N[C@H](C(=O)N[C@@H](Cc1ccccc1)C(=O)O)[C@@H](C)CC,6800,–,–
CC[C@H](C)[C@H](NC(=O)[C@H](CC(=O)O)NC(=O)[C@H](CC(C)C)NC(=O)[C@@H](NC(=O)CCC(=O)O)C(c1ccccc1)c1ccccc1)C(=O)N[C@H](C(=O)N[C@@H](Cc1c[nH]c2ccccc12)C(=O)O)[C@@H](C)CC (Suc-[Dip]LDIIW-OH),> 10000,–,–
CC[C@H](C)[C@H](NC(=O)[C@H](CC(=O)O)NC(=O)[C@H](CC(C)C)NC(=O)[C@@H](Cc1c(C)c(C)c(C)c(C)c1C)NC(C)=O)C(=O)N[C@H](C(=O)N[C@@H](Cc1c[nH]c2ccccc12)C(=O)O)[C@@H](C)CC (Ac-[X4]LDIIW-OH),2400,–,–
CC[C@H](C)[C@@H]1NC(=O)[C@H](CC(=O)O)NC(=O)[C@@H](NC(=O)[C@H](NC(C)=O)C(c2ccccc2)c2ccccc2)CSSC[C@@H](C(=O)N[C@@H](Cc2c[nH]c3ccccc23)C(=O)O)NC1=O,> 1000,–,–
CC[C@H](C)[C@H](NC(=O)[C@H](CC(=O)O)NC(=O)[C@H](CC(C)C)NC(=O)[C@@H](N)Cc1c(C)c(C)c(C)c(C)c1C)C(=O)N[C@H](C(=O)N[C@@H](Cc1c[nH]c2ccccc12)C(=O)O)[C@@H](C)CC (H-[X2]LDIIW-OH),> 10000,–,–
CC[C@H](C)[C@H](NC(=O)[C@H](CC(=O)O)NC(=O)[C@H](CC(C)C)NC(=O)[C@H](NC(C)=O)C1c2ccccc2CCc2ccccc21)C(=O)N[C@H](C(=O)N[C@@H](Cc1c[nH]c2ccccc12)C(=O)O)[C@@H](C)CC (Ac-[dGly(5-dibenzosuberyl)]LDIIW-OH),15,–,–
Ac-FFDIIW-OH,20,–,–
CC[C@H](C)[C@H](NC(=O)[C@H](CC(=O)O)NC(=O)[C@H](CC(C)C)NC(=O)[C@@H](NC(C)=O)C(c1ccccc1)c1ccccc1)C(=O)N[C@@H](CCC(=O)O)C(=O)N[C@@H](Cc1c[nH]c2ccccc12)C(=O)O (Ac-[Dip]LDIEW-OH),> 10000,–,–

# Next, values leading:
IC50 [1] [nM],IC50 [2] [nM],Ratio [3],Compound
5900,–,–,CC[C@H](C)[C@H](NC(=O)[C@H](CC(=O)O)NC(=O)[C@H](CC(C)C)NC(=O)[C@@H](NC(C)=O)C(c1ccccc1)(c1ccccc1)c1ccccc1)C(=O)N[C@H](C(=O)N[C@@H](Cc1c[nH]c2ccccc12)C(=O)O)[C@@H](C)CC (Ac-[X3]LDIIW-OH)
600,290,0.42,CC[C@H](C)[C@H](NC(=O)[C@H](CC(=O)O)NC(=O)[C@H](CC(C)C)NC(=O)[C@@H](NC(=O)C(F)(F)F)C(c1ccccc1)c1ccccc1)C(=O)N[C@H](C(=O)N[C@@H](Cc1c[nH]c2ccccc12)C(=O)O)[C@@H](C)CC (Tfa-[Dip]LDIIW-OH)
> 10000,–,–,CC[C@H](C)[C@@H]1NC(=O)[C@H](CC(=O)O)NC(=O)[C@H](CC(C)C)NC(=O)[C@@H](C2c3ccccc3CCc3ccccc32)NC(=O)[C@H](Cc2c[nH]c3ccccc23)NC(=O)[C@H]([C@@H](C)CC)NC1=O
51,–,–,CC[C@H](C)[C@H](NC(=O)[C@@H](NC(=O)[C@H](CC(=O)O)NC(=O)[C@H](CC(C)C)NC(=O)[C@@H](NC(C)=O)C(c1ccccc1)c1ccccc1)C(C)C)C(=O)N[C@@H](Cc1c[nH]c2ccccc12)C(=O)O (Ac-[Dip]LDVIW-OH)
6000,–,–,CC[C@H](C)[C@H](NC(=O)[C@H](CCC(=O)O)NC(=O)[C@H](CC(=O)O)NC(=O)[C@H](CC(C)C)NC(=O)[C@H](NC(C)=O)C(c1ccccc1)c1ccccc1)C(=O)N[C@@H](Cc1c[nH]c2ccccc12)C(=O)O (Ac-[dDip]LDEIW-OH)
330,–,–,CC[C@H](C)[C@H](NC(=O)[C@H](C)NC(=O)[C@H](CC(=O)O)NC(=O)[C@H](CC(C)C)NC(=O)[C@H](NC(C)=O)C(c1ccccc1)c1ccccc1)C(=O)N[C@@H](Cc1c[nH]c2ccccc12)C(=O)O
730,–,–,CC[C@H](C)[C@H](NC(=O)[C@H](CC(=O)O)NC(=O)[C@H](CC(C)C)NC(=O)[C@H](NC(C)=O)C(c1ccccc1)c1ccccc1)C(=O)N[C@@H](CC(C)C)C(=O)N[C@@H](Cc1c[nH]c2ccccc12)C(=O)O
1400,–,–,CC[C@H](C)[C@H](NC(=O)[C@H](CC(=O)O)NC(=O)[C@H](CC(C)C)NC(=O)[C@@H](NC(C)=O)C(c1ccccc1)c1ccccc1)C(=O)N[C@H](C(=O)N[C@@H](Cc1c[nH]c2ccccc12)C(=O)O)C(C)C (Ac-[Dip]LDIVW-OH)
6100,–,–,CC[C@H](C)[C@H](NC(=O)[C@H](CC(=O)O)NC(=O)[C@H](CC(C)C)NC(=O)[C@@H](NC(C)=O)C(c1ccccc1)c1ccccc1)C(=O)N[C@H](C(=O)N[C@@H](Cc1ccc(O)cc1)C(=O)O)[C@@H](C)CC (Ac-[Dip]LDIIY-OH)
80,–,–,CC[C@H](C)[C@H](NC(=O)[C@H](Cc1ccc(O)cc1)NC(=O)[C@H](CC(C)C)NC(=O)[C@H](NC(C)=O)C(c1ccccc1)c1ccccc1)C(=O)N[C@H](C(=O)N[C@@H](Cc1c[nH]c2ccccc12)C(=O)O)[C@@H](C)CC
4700,–,–,CC[C@H](C)[C@H](NC(=O)[C@H](CC(=O)O)NC(=O)[C@H](CC(C)C)NC(=O)[C@@H](NC(C)=O)C(c1ccccc1)c1ccccc1)C(=O)N[C@@H](CCCCN)C(=O)N[C@@H](Cc1c[nH]c2ccccc12)C(=O)O (Ac-[Dip]LDIKW-OH)
> 10000,–,–,CC[C@H](C)[C@H](NC(=O)[C@H](CC(=O)O)NC(=O)[C@H](CC(C)C)NC(=O)[C@@H](NC(C)=O)C(c1ccccc1)c1ccccc1)C(=O)N[C@H](C(=O)N[C@@H](Cc1cccnc1)C(=O)O)[C@@H](C)CC (Ac-[Dip]LDII[3Pal]-OH)
210,–,–,CC[C@H](C)[C@H](NC(=O)[C@H](CC1CCCCC1)NC(=O)[C@H](CC(=O)O)NC(=O)[C@H](CC(C)C)NC(=O)[C@H](NC(C)=O)C(c1ccccc1)c1ccccc1)C(=O)N[C@@H](Cc1c[nH]c2ccccc12)C(=O)O
1600,–,–,CC[C@H](C)[C@@H]1NC(=O)[C@H](CC(=O)O)NC(=O)[C@H](CC(C)C)NC(=O)[C@@H](C(c2ccccc2)c2ccccc2)NC(=O)[C@H](Cc2c[nH]c3ccccc23)NC(=O)[C@H]([C@@H](C)CC)NC1=O
12,–,–,CC[C@H](C)[C@H](NC(=O)[C@H](Cc1ccc(O)cc1)NC(=O)[C@H](CC(=O)O)NC(=O)[C@H](CC(C)C)NC(=O)[C@@H](NC(C)=O)C(c1ccccc1)c1ccccc1)C(=O)N[C@@H](Cc1c[nH]c2ccccc12)C(=O)O (Ac-[Dip]LDYIW-OH)
> 10000,–,–,CC[C@H](C)[C@@H]1NC(=O)[C@H](CC(=O)O)NC(=O)[C@H](CC(C)C)NC(=O)[C@@H](Cc2ccccc2)NC(=O)[C@H](Cc2c[nH]c3ccccc23)NC(=O)[C@H]([C@@H](C)CC)NC1=O

# Source: ChEMBL document CHEMBL1128478, “Structure-activity relationships of the potent combined endothelin-A/endothelin-B receptor antagonist Ac-DDip16-Leu-Asp-Ile-Ile-Trp21: development of endothelin-B receptor selective antagonists” (J Med Chem, 1995)
